From patent US11918550B2, “Sensitization of cancer cells to differentiation therapy with mitochondrial uncoupler niclosamide ethanolamine” (The Board of Trustees of the Leland Stanford Junior …, priority 2020, dated 2024)

Legend:
SK-N-BE(2) cells [1] = assay: 1-13C-glutamine tracing of reductive carboxylation under normoxia or hypoxia; type: cell-based; details: 1 μM NEN
Description: Metabolic analysis. For the metabolomics and isotope tracing analysis in vitro, cells were washed with cold PBS, lysed in 80% Ultra LC-MS acetonitrile on ice for 15 minutes, centrifuged at 20,000 g for 10 minutes at 4° C., and supernatant was subjected to mass spectrometry analysis. For the metabolomics analysis in vivo, 10-20 mg tissue were cut off on ice, rinsed if necessary to remove blood, and place in a 2 ml round-bottom cryovial. The tissues were homogenized by 3 times 10 s on/off bursts homogenization in 1 ml 80% methanol on dry ice. Transfer the homogenate to an Eppendorf tube and keep on liquid nitrogen while processing the remaining samples. Incubated all the samples in −80° C. for 30 minutes. After incubation, vortexed the samples for 5 seconds. Then centrifuged the samples at 20,000 g for 10 minutes at 4° C., and supernatant was subjected to mass spectrometry analysis. Resuspend the remaining cellular pellet in 100 ul protein lysis buffer and determine the protein concentration. Then calculate the total protein content per sample.
Liquid chromatography was performed using an Agilent 1290 Infinity LC system (Agilent, Santa Clara, US) coupled to a Q-TOF 6545 mass spectrometer (Agilent, Santa Clara, US). […]

SK-N-BE(2) cells [2] = assay: Western blot of RA signaling proteins; type: cell-based; details: 24 hrs
Description: Protein extraction and immunoblot. Cells were washed with ice-cold PBS buffer (Invitrogen, 20012050) and lysed with harvest buffer (10 mM Hepes pH 7.9, 50 mM NaCl, 500 mM sucrose, 0.1 mM EDTA and 0.5% Trition X-100) supplemented with 1% Halt inhibitors (Thermo Scientific™, 78443) for 10 minutes. Cell lysate was centrifuged at 3000 rpm for 3 min at 4° C. The supernatant containing cytosolic proteins was transferred to a different tube. The pellet containing nuclear proteins was dissolved with nuclear lysis buffer (10 mM Hepes pH 7.9, 0.5M NaCl, 0.1 mM EDTA, 0.1 mM EGTA and 0.1% NP40) supplemented with 1% Halt inhibitors (Thermo Scientific™, 78443) for 5 minutes at 4° C. Then the solution was sonicated at 4° C. for 6 cycles (1 cycle=30 s sonication and 30 s cooldown with “High” energy intensity) using a Bioruptor® Plus sonication (Diagenode, UCD-300). After sonication, the solution was centrifuged at 15,000 rpm for 10 minutes. The supernatant was kept as nuclear extraction. Protein concentration was determined by BCA assay (Thermo Scientific, 23227). 5 μg nuclear proteins or 7.5 μg cytosolic proteins were boiled in loading buffer with reducing reagents (Invitrogen, NuPAGE™ LDS Sample Buffer (4X), NP0007), then separated with SDS-PAGE (Nupage™ 4-12% Bis-Tris Protein Gels, 1.0 mm, Invitrogen™, NP0322BOX). Protein was transferred onto a nitrocellulose membrane (Thermo Scientific™, 88018). After blocking in 5% non-fat milk for 30 minutes at room temperature (RT), the primary antibody was added for incubation overnight at 4° C. After washing with TBST (CST, #9997, 1:10 diluted by deionized water) for 3 times, HRP-conjugated secondary antibodies were applied. Signals were detected with an ECL kit (Thermo Scientific™, 34577) by using BioRad Universal Hood II.

[3] = tested on: orthotopic neuroblastoma xenograft (SK-N-BE(2) cells); assay: Orthotopic neuroblastoma xenograft model, tumor growth by ultrasound; type: in vivo, mice; details: diet 2000 ppm NEN (n=4) vs control group (n=6)
Description: Mouse orthotopic neuroblastoma model. All mouse procedures were performed in accordance with Stanford University recommendations for the care and use of animals and were maintained and handled under protocols approved by the Institutional Animal Care and Use Committee. All procedures were performed with female NC nude mice (Taconic, Hudson, NY, USA) at 7 weeks of age. Procedures and ultrasound measurements (see below) were performed under general anesthesia using isoflurane inhalation. Orthotopic tumors within the adrenal gland were created as described before 16. Briefly, a transverse incision was made on the left flank to locate the left adrenal gland, and […] of phosphate buffered saline (PBS) containing […] SK-N-BE(2) cells were injected into the adrenal gland using a 30 G needle. Fascia and skin were closed in separate layers. Tumor formation was monitored by non-invasive ultrasound measurements, and the animals euthanized when the tumor volume exceeded 1,000 mm^3. Monitoring tumor growth with high frequency ultrasound. After securing the mouse in a prone position, a Visual Sonics Vevo 2100 sonographic probe (Toronto, Ontario, Canada) was applied to the left flank to locate the left adrenal gland and the tumor. […] The tumor volume was measured using the 3-D reconstruction tool (Vevo Software v1.6.0, Toronto, Ontario, Canada).

O=C(Nc1ccc([N+](=O)[O-])cc1Cl)c1cc(Cl)ccc1O [NEN, 5-chloro-N-(2-chloro-4-nitrophenyl)-2-hydroxybenzamide compound with 2-aminoethanol (1:1)]
hypoxia-induced reductive carboxylation flux (SK-N-BE(2) cells [1]; hypoxia (0.5% oxygen)): fully repressed | basal reductive carboxylation flux (SK-N-BE(2) cells [1]; normoxia): reduced | protein level of RARγ (SK-N-BE(2) cells [2]; 1 μM NEN alone): increased | protein level of RARγ (SK-N-BE(2) cells [2]; 1 μM NEN combined with 1 μM RA): further upregulated | tumor growth [3]: significantly slowed
